Active and inactive are the calls of the source. The calls are words filed in the database; no cut-off is given here.
Legend:
[1] = biological target: T1, Sphingosine kinase 2 (Homo sapiens) (UniProt Q9NRA0); experiment: Induction of human SphK2 phosphorylation; set-up: concentration or dose not given beside the values
T1 sequence (whole entry): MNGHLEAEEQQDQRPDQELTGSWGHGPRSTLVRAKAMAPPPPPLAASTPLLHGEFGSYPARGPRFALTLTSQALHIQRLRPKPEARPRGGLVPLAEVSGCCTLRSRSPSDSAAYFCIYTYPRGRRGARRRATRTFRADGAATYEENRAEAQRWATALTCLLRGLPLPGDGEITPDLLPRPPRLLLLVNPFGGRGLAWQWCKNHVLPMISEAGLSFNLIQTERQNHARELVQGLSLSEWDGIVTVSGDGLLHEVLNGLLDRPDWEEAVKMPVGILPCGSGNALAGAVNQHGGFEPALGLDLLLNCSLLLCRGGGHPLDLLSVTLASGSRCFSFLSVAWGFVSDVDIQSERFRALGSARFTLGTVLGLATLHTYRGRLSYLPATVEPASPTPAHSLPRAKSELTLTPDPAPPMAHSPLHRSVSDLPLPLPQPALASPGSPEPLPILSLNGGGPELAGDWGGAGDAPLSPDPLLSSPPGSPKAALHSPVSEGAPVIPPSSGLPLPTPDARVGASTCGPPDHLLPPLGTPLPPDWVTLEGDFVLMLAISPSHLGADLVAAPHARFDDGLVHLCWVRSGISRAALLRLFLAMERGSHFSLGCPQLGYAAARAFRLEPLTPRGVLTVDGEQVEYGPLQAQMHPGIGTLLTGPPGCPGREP

[2] = biological target: T2, Sphingosine 1-phosphate receptor 4 (Homo sapiens, UniProt O95977); experiment: Agonist activity at human S1P4 receptor assessed as effect on calcium mobilization by Gq dependent whole cell assay; assay type: functional
T2 sequence (O95977 whole entry): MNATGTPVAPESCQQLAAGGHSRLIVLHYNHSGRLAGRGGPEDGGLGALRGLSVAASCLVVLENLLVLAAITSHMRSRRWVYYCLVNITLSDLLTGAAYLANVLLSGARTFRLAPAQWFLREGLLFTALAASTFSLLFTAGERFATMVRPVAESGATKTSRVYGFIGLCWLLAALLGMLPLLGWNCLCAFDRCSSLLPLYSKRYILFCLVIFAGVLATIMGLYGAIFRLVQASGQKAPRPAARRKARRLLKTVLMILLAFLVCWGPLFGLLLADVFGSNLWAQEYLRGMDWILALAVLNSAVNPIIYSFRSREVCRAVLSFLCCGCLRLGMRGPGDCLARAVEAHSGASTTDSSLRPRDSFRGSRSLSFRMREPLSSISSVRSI

[3] = biological target: T3, Sphingosine 1-phosphate receptor 1 (Homo sapiens, UniProt P21453); experiment: Agonist activity at human S1P1 receptor assessed as effect on calcium mobilization by Gq dependent whole cell assay; assay type: functional
[4] = biological target: T3, Sphingosine 1-phosphate receptor 1; experiment: Agonist activity at human S1P1 receptor assessed as effect on calcium mobilization by Gi dependent whole cell assay; assay type: functional
[5] = biological target: T4, Sphingosine 1-phosphate receptor 3 (Homo sapiens, UniProt Q99500); experiment: Agonist activity at human S1P3 receptor assessed as effect on calcium mobilization by Gq dependent whole cell assay; assay type: functional
[6] = biological target: T4, Sphingosine 1-phosphate receptor 3; experiment: Agonist activity at human S1P3 receptor assessed as effect on calcium mobilization by Gi dependent whole cell assay; assay type: functional
[7] = biological target: T5, Sphingosine kinase 2 (Mus musculus) (UniProt Q9JIA7); experiment: Induction of mouse SphK2 phosphorylation
T5 sequence (whole entry): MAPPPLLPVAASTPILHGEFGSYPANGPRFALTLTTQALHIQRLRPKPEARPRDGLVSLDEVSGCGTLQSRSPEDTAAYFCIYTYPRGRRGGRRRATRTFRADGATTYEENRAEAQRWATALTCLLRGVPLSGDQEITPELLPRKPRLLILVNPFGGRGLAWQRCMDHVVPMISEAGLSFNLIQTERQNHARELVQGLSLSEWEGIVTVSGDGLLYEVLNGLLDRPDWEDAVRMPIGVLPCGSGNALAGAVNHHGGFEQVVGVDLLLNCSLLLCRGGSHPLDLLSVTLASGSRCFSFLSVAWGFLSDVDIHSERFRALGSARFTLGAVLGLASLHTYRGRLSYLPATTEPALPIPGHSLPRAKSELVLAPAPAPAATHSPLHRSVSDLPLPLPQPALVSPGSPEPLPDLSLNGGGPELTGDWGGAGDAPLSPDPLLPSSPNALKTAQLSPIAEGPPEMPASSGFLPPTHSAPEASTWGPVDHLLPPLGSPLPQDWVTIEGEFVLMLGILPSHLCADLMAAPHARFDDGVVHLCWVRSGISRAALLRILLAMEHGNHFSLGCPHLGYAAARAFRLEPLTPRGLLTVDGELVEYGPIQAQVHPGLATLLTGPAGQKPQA

Mus musculus [8] = species on record: Mus musculus; experiment: Immunosuppressive activity in mouse assessed as induction of lymphopenia; assay type: functional
[9] = biological target: Sphingosine 1-phosphate receptor 2 (Homo sapiens, UniProt O95136); experiment: Agonist activity at human S1P2 receptor assessed as effect on calcium mobilization by Gq dependent whole cell assay; assay type: functional
[10] = biological target: Sphingosine 1-phosphate receptor 5 (Homo sapiens, UniProt Q9H228); experiment: Agonist activity at human S1P5 receptor assessed as effect on calcium mobilization by Gq dependent whole cell assay; assay type: functional
Mus musculus [11] = experiment: Immunosuppressive activity in mouse assessed as induction of lymphopenia at 2 mg/kg after 72 hrs; assay type: functional, organism-based; set-up: dose 2 mg/kg
Mus musculus [12] = species on record: Mus musculus; experiment: Immunosuppressive activity in mouse assessed as induction of […]; assay type: functional
Mus musculus [13] = experiment: Half life in mouse at 2 mg/kg after 72 hrs; assay type: ADME, organism-based; set-up: dose 2 mg/kg; conditions: in vivo
Mus musculus [14] = experiment: Oral bioavailability in mouse at 2 mg/kg after 72 hrs; assay type: ADME, organism-based; conditions: in vivo
Mus musculus [15] = experiment: Half life in mouse at 1 mg/kg after 1 week; assay type: ADME, organism-based; set-up: dose 1 mg/kg; conditions: in vivo, 168 h
Mus musculus [16] = experiment: Oral bioavailability in mouse at 1 mg/kg after 1 week; assay type: ADME, organism-based; conditions: in vivo, 168 h
Mus musculus [17] = experiment: Vd in mouse at 1 mg/kg after 1 week; conditions: in vivo, 168 h
Mus musculus [18] = experiment: Immunosuppressive activity in mouse assessed as induction of lymphopenia at 1 mg/kg after 1 week; assay type: functional, organism-based; set-up: dose 1 mg/kg
[19] = Clearance in mouse at 1 mg/kg after 1 week; assay type: ADME, organism-based; set-up: dose 1 mg/kg; conditions: in vivo

T3 sequence (P21453 whole entry): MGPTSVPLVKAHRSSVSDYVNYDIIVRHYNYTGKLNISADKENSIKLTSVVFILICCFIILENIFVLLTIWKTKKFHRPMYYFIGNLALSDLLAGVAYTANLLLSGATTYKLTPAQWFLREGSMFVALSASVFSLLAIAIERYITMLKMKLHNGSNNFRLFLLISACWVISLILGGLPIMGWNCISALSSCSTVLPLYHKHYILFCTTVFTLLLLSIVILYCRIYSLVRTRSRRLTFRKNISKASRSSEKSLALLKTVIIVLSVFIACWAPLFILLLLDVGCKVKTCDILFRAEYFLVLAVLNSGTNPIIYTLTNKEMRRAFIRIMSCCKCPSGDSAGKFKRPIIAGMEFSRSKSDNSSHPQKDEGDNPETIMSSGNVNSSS
Sequence of Sphingosine 1-phosphate receptor 2 (O95136 whole entry): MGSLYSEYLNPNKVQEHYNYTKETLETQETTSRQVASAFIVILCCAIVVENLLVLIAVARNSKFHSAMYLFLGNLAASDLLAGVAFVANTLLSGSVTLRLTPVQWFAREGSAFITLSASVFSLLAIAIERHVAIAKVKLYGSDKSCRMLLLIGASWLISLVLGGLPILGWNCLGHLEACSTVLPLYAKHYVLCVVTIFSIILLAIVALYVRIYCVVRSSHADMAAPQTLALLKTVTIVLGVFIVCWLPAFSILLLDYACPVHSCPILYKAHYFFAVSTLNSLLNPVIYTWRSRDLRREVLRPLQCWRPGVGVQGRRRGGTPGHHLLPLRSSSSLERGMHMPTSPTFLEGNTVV
Sequence of Sphingosine 1-phosphate receptor 5 (Q9H228 whole entry): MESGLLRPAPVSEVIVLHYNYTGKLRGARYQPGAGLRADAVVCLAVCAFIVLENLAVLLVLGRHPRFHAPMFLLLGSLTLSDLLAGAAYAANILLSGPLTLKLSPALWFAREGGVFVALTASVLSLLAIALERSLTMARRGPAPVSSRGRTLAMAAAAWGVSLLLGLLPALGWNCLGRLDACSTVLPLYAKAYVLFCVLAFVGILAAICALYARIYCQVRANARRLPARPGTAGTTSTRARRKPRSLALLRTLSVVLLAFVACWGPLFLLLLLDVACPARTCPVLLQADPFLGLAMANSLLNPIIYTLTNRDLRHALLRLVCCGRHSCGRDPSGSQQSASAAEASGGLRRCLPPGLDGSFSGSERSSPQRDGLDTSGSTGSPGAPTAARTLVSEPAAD
T4 sequence (Q99500 whole entry): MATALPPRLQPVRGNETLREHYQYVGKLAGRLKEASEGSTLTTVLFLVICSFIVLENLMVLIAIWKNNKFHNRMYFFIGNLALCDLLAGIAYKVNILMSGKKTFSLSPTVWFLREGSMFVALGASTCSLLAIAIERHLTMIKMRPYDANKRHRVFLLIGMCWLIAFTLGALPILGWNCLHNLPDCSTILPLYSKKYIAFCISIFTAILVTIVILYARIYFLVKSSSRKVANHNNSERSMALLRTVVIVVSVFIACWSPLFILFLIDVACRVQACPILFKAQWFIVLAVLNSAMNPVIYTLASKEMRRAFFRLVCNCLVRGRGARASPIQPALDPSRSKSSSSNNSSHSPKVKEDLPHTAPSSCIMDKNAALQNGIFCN

Compound	Activity [1] [%]	EC50 [2] [nM]	EC50 [3] [nM]	EC50 [4] [nM]	EC50 [5] [nM]	EC50 [6] [nM]	ED50 (Mus musculus [8]) [mg/kg]	other results
CCCCCCCCc1ccc2c(c1)CC[C@@H]([C@](C)(N)CO)C2	0							
CCCCCCCCc1ccc(CC[C@](N)(CO)COP(=O)(O)O)cc1 [FTY720-P]		22.2						
CCCCCCCCc1ccc2c(c1)CC[C@H]([C@](C)(N)COP(=O)(O)O)C2			> 5000	13.6	922	> 5000		
CCCCCCCCc1ccc(CCC(N)(CO)CO)cc1 [FINGOLIMOD]	76						0.03	Activity [7]: 87%
CCCCCCCCc1ccc2c(c1)CC[C@@H](C(N)(CO)COP(=O)(O)O)C2 (single isomer, unassigned; isomer 1)		5.39	1.95	0.077	18.7	0.215		EC50 [9]: > 5000 nM; EC50 [10]: 0.33 nM
CCCCCCCCc1ccc2c(c1)CC[C@H]([C@@](C)(N)COP(=O)(O)O)C2		16	1.79	0.018	97.4	0.286		EC50 [9]: > 5000 nM; EC50 [10]: 1.49 nM
CCCCCCCCCCCCC/C=C/[C@@H](O)[C@@H](N)COP(=O)(O)O				0.027		0.449		
CCCCCCCCc1ccc2c(c1)CC[C@@H]([C@@](C)(N)CO)C2	38						0.8	
CCCCCCCCc1ccc2c(c1)CC[C@H]([C@](C)(N)CO)C2	0						> 5	
CCCCCCCCc1ccc2c(c1)CC[C@H](C(N)(CO)CO)C2	3						3.8	
CCCCCCCCc1ccc(CC[C@@](N)(CO)COP(=O)(O)O)cc1		137						
CCCCCCCCc1ccc2c(c1)CC[C@@H](C(N)(CO)COP(=O)(O)O)C2 (stereo in doubt)		41.4	133	0.344	25.7	> 5000		EC50 [9]: > 5000 nM; EC50 [10]: 33 nM
CCCCCCCCc1ccc2c(c1)CC[C@@H]([C@](C)(N)COP(=O)(O)O)C2				19.7		> 5000		
CCCCCCCCc1ccc2c(c1)CC[C@@H](C(N)(CO)CO)C2	9						0.2	Activity [7]: 4%; Activity (Mus musculus [11]): Active; Activity (Mus musculus [12]): 3%; t1/2 (Mus musculus [13]): 16 h; F (Mus musculus [14]): 55%
CCCCCCCCc1ccc2c(c1)CC[C@@H]([C@@](C)(N)COP(=O)(O)O)C2			5.62	0.088	38.2	0.15		
CCCCCCCCc1ccc2c(c1)CC[C@H]([C@@](C)(N)CO)C2	77						0.1	t1/2 (Mus musculus [15]): 36 h; Activity [7]: 90%; Activity (Mus musculus [12]): 63%; F (Mus musculus [16]): 55%; Vd (Mus musculus [17]): 16 L/kg; Activity (Mus musculus [18]): Active; clearance [19]: 5.5 mL/min/kg

From ChEMBL document CHEMBL1156285, “Stereochemistry-activity relationship of orally active tetralin S1P agonist prodrugs” (Bioorg Med Chem Lett, 2010)
